Values quoted from earlier work, collected in PubChem BioAssay AID1259409 (Chemical Carcinogenesis Research Information System (CCRIS), 2018).

Test system: rodent chemically induced tumor inhibition, incidence and multiplicity
Test: CCRIS tumor inhibitor studies
Settings: for tumour outcome (control, treated, inhibition, significance): Route [Inhibitor]: ORAL; for outcome: Carcinogen: N,N-Diethylnitrosamine, Route [Inhibitor]: Intravenous, Species: Rat, Strain/Sex: Swiss-Albino/Male, Target Tissue: Type of Lesion: Liver: preneoplastic lesions, Promoter: None

Structure (SMILES): O=c1c(O)c(-c2ccc(O)c(O)c2)oc2cc(O)cc(O)c12
- tumour outcome (control, treated, inhibition, significance) (Carcinogen: DIETHYLNITROSAMINE, 55-18-5, N-METHYLNITROSOUREA, 684-93-5, 1,2-DIMETHYLHYDRAZINE, 540-73-8, N-BUTYL-N-(4-HYDROXYB, Carcinogen: DIETHYLNITROSAMINE, 55-18-5, N-METHYLNITROSOUREA, 684-93-5, 1,2-DIMETHYLHYDRAZINE, 540-73-8, N-BUTYL-N-(4-HYDROXYB, Dose [Inhibitor]: 0, 1% IN DIET FOR 32 WK BEGINNING POST CARCINOGEN TREATMENT (STUDY DURATION: 36 WK), Species: RAT, Strain/Sex: F344/MALE, Target Tissue: Type of Lesion: SMALL INTESTINE: ADENOMA, Dose [Carcinogen]: 100 MG/KG DEN ONCE, 20 MG/KG MNU 4 TIMES, 40 MG/KG DMH 4 TIMES, 0.05% BBN IN DRINKING WATER FOR 2 WK, 0.1% DHPN IN D, Dose [Carcinogen]: 100 MG/KG DEN ONCE, 20 MG/KG MNU 4 TIMES, 40 MG/KG DMH 4 TIMES, 0.05% BBN IN DRINKING WATER FOR 2 WK, 0.1% DHPN IN D, Promoter: NONE USED): 6/14 (43%), 0/12 (0%), 100%, p<0.05
- tumour outcome (control, treated, inhibition, significance) (Carcinogen: DIETHYLNITROSAMINE, 55-18-5, N-METHYLNITROSOUREA, 684-93-5, 1,2-DIMETHYLHYDRAZINE, 540-73-8, N-BUTYL-N-(4-HYDROXYB, Carcinogen: DIETHYLNITROSAMINE, 55-18-5, N-METHYLNITROSOUREA, 684-93-5, 1,2-DIMETHYLHYDRAZINE, 540-73-8, N-BUTYL-N-(4-HYDROXYB, Dose [Inhibitor]: 0, 1% IN DIET FOR 32 WK BEGINNING POST CARCINOGEN TREATMENT (STUDY DURATION: 36 WK), Species: RAT, Strain/Sex: F344/MALE, Target Tissue: Type of Lesion: SMALL INTESTINE: CARCINOMA, Dose [Carcinogen]: 100 MG/KG DEN ONCE, 20 MG/KG MNU 4 TIMES, 40 MG/KG DMH 4 TIMES, 0.05% BBN IN DRINKING WATER FOR 2 WK, 0.1% DHPN IN D, Dose [Carcinogen]: 100 MG/KG DEN ONCE, 20 MG/KG MNU 4 TIMES, 40 MG/KG DMH 4 TIMES, 0.05% BBN IN DRINKING WATER FOR 2 WK, 0.1% DHPN IN D, Promoter: NONE USED): 5/14 (36%), 0/12 (0%), 100%, p<0.05
- tumour outcome (control, treated, inhibition, significance) (Carcinogen: DIETHYLNITROSAMINE, 55-18-5, N-METHYLNITROSOUREA, 684-93-5, 1,2-DIMETHYLHYDRAZINE, 540-73-8, N-BUTYL-N-(4-HYDROXYBU, Carcinogen: DIETHYLNITROSAMINE, 55-18-5, N-METHYLNITROSOUREA, 684-93-5, 1,2-DIMETHYLHYDRAZINE, 540-73-8, N-BUTYL-N-(4-HYDROXYBU, Dose [Inhibitor]: 0, 1% IN DIET FOR 32 WK BEGINNING POST CARCINOGEN TREATMENT (STUDY DURATION: 36 WK), Species: RAT, Strain/Sex: F344/MALE, Target Tissue: Type of Lesion: LARGE INTESTINE: ADENOMA, Dose [Carcinogen]: 100 MG/KG DEN ONCE, 20 MG/KG MNU 4 TIMES, 40 MG/KG DMH 4 TIMES, 0.05% BBN IN DRINKING WATER FOR 2 WK, 0.1% DHPN IN D, Dose [Carcinogen]: 100 MG/KG DEN ONCE, 20 MG/KG MNU 4 TIMES, 40 MG/KG DMH 4 TIMES, 0.05% BBN IN DRINKING WATER FOR 2 WK, 0.1% DHPN IN D, Promoter: NONE USED): 7/14 (50%), 3/12 (25%), 50%, not significant
- tumour outcome (control, treated, inhibition, significance) (Carcinogen: DIETHYLNITROSAMINE, 55-18-5, N-METHYLNITROSOUREA, 684-93-5, 1,2-DIMETHYLHYDRAZINE, 540-73-8, N-BUTYL-N-(4-HYDROXYBU, Carcinogen: DIETHYLNITROSAMINE, 55-18-5, N-METHYLNITROSOUREA, 684-93-5, 1,2-DIMETHYLHYDRAZINE, 540-73-8, N-BUTYL-N-(4-HYDROXYBU, Dose [Inhibitor]: 0, 1% IN DIET FOR 32 WK BEGINNING POST CARCINOGEN TREATMENT (STUDY DURATION: 36 WK), Species: RAT, Strain/Sex: F344/MALE, Target Tissue: Type of Lesion: LUNG: ADENOMA, Dose [Carcinogen]: 100 MG/KG DEN ONCE, 20 MG/KG MNU 4 TIMES, 40 MG/KG DMH 4 TIMES, 0.05% BBN IN DRINKING WATER FOR 2 WK, 0.1% DHPN IN D, Dose [Carcinogen]: 100 MG/KG DEN ONCE, 20 MG/KG MNU 4 TIMES, 40 MG/KG DMH 4 TIMES, 0.05% BBN IN DRINKING WATER FOR 2 WK, 0.1% DHPN IN D, Promoter: NONE USED): 6/14 (43%), 3/12 (25%), 42%, not significant
- outcome (55-18-5, Dose [Inhibitor]: 0.5 ml suspension of 0.2% tween 80 aqueous soln with 0.898 mM quercetin once a wk for 16 wk, Dose [Carcinogen]: 200 mg/kg bw in 0.5 ml olive oil three times at 15 day intervals beginning on wk 1): 1205+/-102, 1111+/-56, not significant
- outcome (55-18-5, Dose [Inhibitor]: 0.5 ml suspension of galactosylated liposomal quercitin, 0.898 mM, once a wk for 16 wk, study duration 18 wk, Dose [Carcinogen]: 200 mg/kg bw in 0.5 ml olive oil three times at end of 1st, 3rd and 5th wk, study duration 18 wk): 1205+/-102, 361+/-22, significant
- outcome (55-18-5, Dose [Inhibitor]: 0.5 ml suspension of liposomal quercitin, 0.898 mM, once a wk for 16 wk, study duration 18 wk, Dose [Carcinogen]: 200 mg/kg bw in 0.5 ml olive oil three times at end of 1st, 3rd and 5th wk, study duration 18 wk): 1205+/-102, 861+/-81, significant
- tumour outcome (control, treated, inhibition, significance) (Carcinogen: N-BUTYL-N-(4-HYDROXYBUTYL)NITROSAMINE, 3817-11-6, Dose [Inhibitor]: 5% DIET DAILY FOR 34 WK STARTING AT COMPLETION OF CARCINOGEN TREATMENT (STUDY DURATION: 38 WK), Species: RAT, Strain/Sex: F344/MALE, Target Tissue: Type of Lesion: URINARY BLADDER: PAPILLOMA, Dose [Carcinogen]: 0.01% IN DRINKING WATER FOR 4 WK, Promoter: NONE USED): 33%, 17%, 48%, not significant
- tumour outcome (control, treated, inhibition, significance) (Carcinogen: N-NITROSODIETHYLAMINE, 55-18-5, 2-ACETYLAMINOFLUORENE, 53-93-6, CARBON TETRACHLORIDE, 56-23-5, Carcinogen: N-NITROSODIETHYLAMINE, 55-18-5, 2-ACETYLAMINOFLUORENE, 53-93-6, CARBON TETRACHLORIDE, 56-23-5, Dose [Inhibitor]: 0, 1.5% IN DIET FOR 29 WK ADMINISTERED TO RATS BEARING PERSISTENT NODULES FOLLOWING CARCINOGEN TREATMENT (STUDY DURATION, Species: RAT, Strain/Sex: F344/MALE, Target Tissue: Type of Lesion: LIVER: HEPATOCELLULAR CARCINOMA, Dose [Carcinogen]: 200 MG/KG BW DEN ONCE, 0.002% 2-AAF IN DIET FOR 2 WK, 1 MG/KG BW CCL4 MIDWAY IN 2-AAF TREATMENT, Dose [Carcinogen]: 200 MG/KG BW DEN ONCE, 0.002% 2-AAF IN DIET FOR 2 WK, 1 MG/KG BW CCL4 MIDWAY IN 2-AAF TREATMENT, Promoter: NONE USED): 7/8 (88%), 7/11 (64%), 27%, not significant
- tumour outcome (control, treated, inhibition, significance) (Carcinogen: N-NITROSODIETHYLAMINE, 55-18-5, 2-ACETYLAMINOFLUORENE, 53-93-6, CARBON TETRACHLORIDE, 56-23-5, Carcinogen: N-NITROSODIETHYLAMINE, 55-18-5, 2-ACETYLAMINOFLUORENE, 53-93-6, CARBON TETRACHLORIDE, 56-23-5, Dose [Inhibitor]: 0, 1.5% IN DIET FOR 29 WK ADMINISTERED TO RATS BEARING PERSISTENT NODULES FOLLOWING CARCINOGEN TREATMENT (STUDY DURATION, Species: RAT, Strain/Sex: F344/MALE, Target Tissue: Type of Lesion: LIVER: HEPATOCELLULAR CARCINOMA, Dose [Carcinogen]: 200 MG/KG BW DEN ONCE, 0.002% 2-AAF IN DIET FOR 2 WK, 1 ML/KG BW CCL4 MIDWAY IN 2-AAF TREATMENT, Dose [Carcinogen]: 200 MG/KG BW DEN ONCE, 0.002% 2-AAF IN DIET FOR 2 WK, 1 ML/KG BW CCL4 MIDWAY IN 2-AAF TREATMENT, Promoter: PHENOBARBITAL, 50-06-6): 12/12 (100%), 13/14 (93%), 7%, not significant
- tumour outcome (control, treated, inhibition, significance) (Carcinogen: N-NITROSOMETHYLUREA, 684-93-5, Dose [Inhibitor]: 5.0% IN DIET BEGINNING 1 WK PRIOR TO CARCINOGEN DOSE AND CONTINUING FOR DURATION OF STUDY (STUDY DURATION: 21 WK), Species: RAT, Strain/Sex: SPRAGUE-DAWLEY/FEMALE, Target Tissue: Type of Lesion: MAMMARY GLAND: TUMOR, Dose [Carcinogen]: 50 MG/KG BW IN 0.9% SALINE AND 5% ACETIC ACID STABILIZER ONCE, Promoter: NONE USED): 78%, 70%, 10%, not calculated
- tumour outcome (control, treated, inhibition, significance) (Dose [Inhibitor]: 0, 2000 PPM IN DIET BEGINNING 8 WK PRIOR TO CARCINOGEN AND CONTINUING FOR 6 WK POST CARCINOGEN (STUDY DURATION: 68 WK), Species: FISH, Strain/Sex: RAINBOW TROUT, Target Tissue: Type of Lesion: LIVER: HEPATOCELLULAR CARCINOMA, Dose [Carcinogen]: 20 PPB IN DIET FOR 2 WK, Promoter: NONE USED): 43/118 (36%), 30/115 (26%), 27%, not significant
